Measurements from patent US12514832B2, “Methods for using low-dose colchicine after myocardial infarction” (INSTITUT DE CARDIOLOGIE DE MONTREAL, priority 2019, dated 2026).

Test system: patients recruited within 30 days after a myocardial infarction
Test: COLCOT randomized, double-blind, placebo-controlled trial: clinical efficacy end points
Format: in vivo, human
Set-up: Primary efficacy composite endpoint, % of patients with event: concentration or dose not given beside the values
Description: We performed a randomized, double-blind trial involving patients recruited within 30 days after a myocardial infarction. The patients were randomly assigned to receive either low-dose colchicine (0.5 mg once daily) or placebo. A total of 4745 patients were enrolled; 2366 patients were assigned to the colchicine group, and 2379 to the placebo group. Patients were followed for a median of 22.6 months.
The primary efficacy end point was a composite of death from cardiovascular causes, resuscitated cardiac arrest, myocardial infarction, stroke, or urgent hospitalization for angina leading to coronary revascularization. The components of the primary end point and safety were also assessed.
In this randomized, double-blind, placebo-controlled, investigator-initiated trial, we assigned patients in a 1:1 ratio to receive either colchicine (at a dose of 0.5 mg once daily) or placebo. The trial protocol, available at NEJM.org, was designed by a trial steering committee. The protocol was approved by the institutional review board at each of the 167 centers in the 12 countries that participated in the trial (available at NEJM.org). All trial support activities, including project coordination, data management, site monitoring, and statistical oversight and analyses, were performed at the Montreal Health Innovations Coordinating Center. Potential trial end-point events were adjudicated by an independent clinical end-point committee composed of experienced cardiologists and neurologists who were unaware of the trial-group assignments. The trial was overseen by a data and safety monitoring board of independent experts. The trial medication and matching placebo were provided by Pharmascience.
Patients were excluded if they had severe heart failure, a left ventricular ejection fraction of less than 35%, stroke within the previous 3 months, a type 2 index myocardial infarction, coronary-bypass surgery either within the previous 3 years or planned, a history of noncutaneous cancer within the previous 3 years, inflammatory bowel disease or chronic diarrhea, neuromuscular disease or a nontransient creatine kinase level that was greater than three times the upper limit of the normal range (unless due to infarction), clinically significant nontransient hematologic abnormalities, severe renal disease with a serum creatinine level that was greater than two times the upper limit of the normal range; severe hepatic disease, drug or alcohol abuse, current or planned long-term systemic glucocorticoid therapy, or a history of clinically significant sensitivity to colchicine. (Details regarding eligibility criteria are provided herein.)
The primary efficacy end point was a composite of death from cardiovascular causes, resuscitated cardiac arrest, myocardial infarction, stroke, or urgent hospitalization for angina leading to coronary revascularization in a time-to-event analysis.
The secondary end points consisted of the components of the primary efficacy end point; a composite of death from cardiovascular causes, resuscitated cardiac arrest, myocardial infarction, or stroke; and total mortality in time-to-event analyses. Coronary revascularization, hospitalization for heart failure, atrial fibrillation, and deep venous thrombosis or pulmonary embolus were prespecified as exploratory end points in the protocol.
The efficacy analyses were conducted with the use of positively adjudicated data and according to the intention-to-treat principle. The primary end point was compared between the two trial groups with the use of a log-rank test, and the hazard ratio from a Cox proportional-hazards model, with a 95% confidence interval, was calculated. A Cox proportional-hazards model with adjustment for important baseline characteristics was also used as prespecified in the protocol.
The analysis of the primary end point was repeated in the per-protocol population (i.e., patients without major protocol deviations). […]

[1] = per-protocol population, N=2260

COc1cc2c(c(OC)c1OC)-c1ccc(OC)c(=O)cc1[C@@H](NC(C)=O)CC2 [Colchicine, colchicine]
Primary efficacy composite endpoint, Hazard ratio (colchicine vs placebo, subgroup Female): 0.99 | Primary efficacy composite endpoint, Hazard ratio (colchicine vs placebo, subgroup History of diabetes No): 0.85 | Primary efficacy composite endpoint, Hazard ratio (colchicine vs placebo, subgroup History of diabetes Yes): 0.65 | Primary efficacy composite endpoint, Hazard ratio (colchicine vs placebo, subgroup History of hypertension No): 0.80 | Primary efficacy composite endpoint, Hazard ratio (colchicine vs placebo, subgroup History of hypertension Yes): 0.76 | Primary efficacy composite endpoint, Hazard ratio (colchicine vs placebo, subgroup Male): 0.70 | Primary efficacy composite endpoint, Hazard ratio (colchicine vs placebo, subgroup Non-smoker): 0.90 | Primary efficacy composite endpoint, Hazard ratio (colchicine vs placebo, subgroup Previous smoker): 0.59 | Primary efficacy composite endpoint, Hazard ratio (colchicine vs placebo, subgroup Prior MI No): 0.68 | Primary efficacy composite endpoint, Hazard ratio (colchicine vs placebo, subgroup Prior MI Yes): 1.05 | Primary efficacy composite endpoint, Hazard ratio (colchicine vs placebo, subgroup Prior PCI or CABG No): 0.72 | Primary efficacy composite endpoint, Hazard ratio (colchicine vs placebo, subgroup Prior PCI or CABG Yes): 0.91 | Primary efficacy composite endpoint, Hazard ratio (colchicine vs placebo, subgroup Prior stroke or TIA No): 0.76 | Primary efficacy composite endpoint, Hazard ratio (colchicine vs placebo, subgroup Prior stroke or TIA Yes): 1.09 | Primary efficacy composite endpoint, Hazard ratio (colchicine vs placebo, subgroup White blood cell count Above median): 0.80 | Primary efficacy composite endpoint, Hazard ratio (colchicine vs placebo, subgroup White blood cell count Below median): 0.85 | Primary endpoint, hazard ratio (colchicine vs placebo, women, per-protocol population): 0.81 (0.47; 1.41) | MI, % [1]: 3.4% | MI, no. of patients [1]: 77 | Primary endpoint, % of patients [1]: 5.1% | Primary endpoint, no. of patients [1]: 115 | Resuscitated cardiac arrest, % [1]: 0.2% | Resuscitated cardiac arrest, no. of patients [1]: 5 | Stroke, % [1]: 0.2% | Stroke, no. of patients [1]: 5 | Urgent hospitalization for angina requiring revascularization, % [1]: 1.0% | Urgent hospitalization for angina requiring revascularization, no. of patients [1]: 22 | Primary efficacy composite endpoint, % of patients with event (subgroup Active smoker): 5.4% | Primary efficacy composite endpoint, no. of patients with event (subgroup Active smoker, total 708): 38 | Primary efficacy composite endpoint, % of patients with event (subgroup Female): 7.8% | Primary efficacy composite endpoint, no. of patients with event (subgroup Female, total 472): 37 | Primary efficacy composite endpoint, % of patients with event (subgroup History of diabetes No): 4.8% | Primary efficacy composite endpoint, no. of patients with event (subgroup History of diabetes No, total 1904): 91 | Primary efficacy composite endpoint, % of patients with event (subgroup History of diabetes Yes): 8.7% | Primary efficacy composite endpoint, no. of patients with event (subgroup History of diabetes Yes, total 462): 40 | Primary efficacy composite endpoint, % of patients with event (subgroup History of hypertension No): 4.1% | Primary efficacy composite endpoint, no. of patients with event (subgroup History of hypertension No, total 1181): 48 | Primary efficacy composite endpoint, % of patients with event (subgroup History of hypertension Yes): 7.0% | Primary efficacy composite endpoint, no. of patients with event (subgroup History of hypertension Yes, total 1185): 83 | Primary efficacy composite endpoint, % of patients with event (subgroup Male): 5.0% | Primary efficacy composite endpoint, no. of patients with event (subgroup Male, total 1894): 94 | Primary efficacy composite endpoint, % of patients with event (subgroup Non-smoker): 6.0% | Primary efficacy composite endpoint, no. of patients with event (subgroup Non-smoker, total 787): 47 | Primary efficacy composite endpoint, % of patients with event (subgroup Previous smoker): 5.3% | Primary efficacy composite endpoint, no. of patients with event (subgroup Previous smoker, total 871): 46 | Primary efficacy composite endpoint, % of patients with event (subgroup Prior MI No): 4.3% | Primary efficacy composite endpoint, no. of patients with event (subgroup Prior MI No, total 1996): 85 | Primary efficacy composite endpoint, % of patients with event (subgroup Prior MI Yes): 12.4% | Primary efficacy composite endpoint, no. of patients with event (subgroup Prior MI Yes, total 370): 46 | Primary efficacy composite endpoint, % of patients with event (subgroup Prior PCI or CABG No): 4.3% | Primary efficacy composite endpoint, no. of patients with event (subgroup Prior PCI or CABG No, total 1947): 83 | Primary efficacy composite endpoint, % of patients with event (subgroup Prior PCI or CABG Yes): 11.5% | Primary efficacy composite endpoint, no. of patients with event (subgroup Prior PCI or CABG Yes, total 419): 48 | Primary efficacy composite endpoint, % of patients with event (subgroup Prior stroke or TIA No): 5.3% | Primary efficacy composite endpoint, no. of patients with event (subgroup Prior stroke or TIA No, total 2311): 123 | Primary efficacy composite endpoint, % of patients with event (subgroup Prior stroke or TIA Yes): 14.5% | Primary efficacy composite endpoint, no. of patients with event (subgroup Prior stroke or TIA Yes, total 55): 8 | Primary efficacy composite endpoint, % of patients with event (subgroup White blood cell count Above median): 5.3% | Primary efficacy composite endpoint, no. of patients with event (subgroup White blood cell count Above median, total 637): 34 | Primary efficacy composite endpoint, % of patients with event (subgroup White blood cell count Below median): 6.2% | Primary efficacy composite endpoint, no. of patients with event (subgroup White blood cell count Below median (8.64 × 10^3/μL), total 660): 41
